Tested on: 777334-354-R2-J4-PDC tumor spheroids with HUVEC/MSC, viability
Test: Anticancer human tumor 777334-354-R2-J4-PDC patient-derived pancreatic adenocarcinoma cell line growth inhibition [GQUAD]
Conditions: for IC50: curve of first compound; for viability, T/C: stronger effect = lower value; active means viability on the fitted dose curve at most 10% of control; inactive means the rest
Summary of the method: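 Viability of tumor cells grown as complex spheroids with endothelial and stromal cells, exposed to drug combinations. Top concentration at or near clinical Cmax (else 10 microM), diluted in half-log increments.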
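Further: spheroids exposed to compounds for 7 days before readout.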

CC1COCCN1c1cc(-c2ccnn2C)c2ccnc(-c3ccn[nH]3)c2n1 (configuration not stated) + Cc1cnc(CNC(=O)c2c(=O)c3ccc(N4CCCN(C)CC4)nc3n3c2sc2ccccc23)cn1
143 nM: IC50 (second compound 0.0316 µM)
240 nM: IC50 (second compound 0.1 µM)
inactive: viability, T/C (second compound 0.0316 µM, first compound 0.0316 µM) 73.2% | viability, T/C (second compound 0.0316 µM, first compound 0.1 µM) 50.8% | viability, T/C (second compound 0.0316 µM, first compound 0.316 µM) 45.5% | viability, T/C (second compound 0.0316 µM, first compound 1 µM) 41.7% | viability, T/C (second compound 0.0316 µM, first compound 3.16 µM) 43.1% | viability, T/C (second compound 0.0316 µM, first compound 10 µM) 34.5% | viability, T/C (second compound 0.1 µM, first compound 0.0316 µM) 59.8% | viability, T/C (second compound 0.1 µM, first compound 0.1 µM) 51.3% | viability, T/C (second compound 0.1 µM, first compound 0.316 µM) 47.8% | viability, T/C (second compound 0.1 µM, first compound 1 µM) 41.9% | viability, T/C (second compound 0.1 µM, first compound 3.16 µM) 44.1% | viability, T/C (second compound 0.1 µM, first compound 10 µM) 28.7% | viability, T/C (second compound 0.316 µM, first compound 0.0316 µM) 56% | viability, T/C (second compound 0.316 µM, first compound 0.1 µM) 59.3% | viability, T/C (second compound 0.316 µM, first compound 0.316 µM) 48.6% | viability, T/C (second compound 0.316 µM, first compound 1 µM) 41.8% | viability, T/C (second compound 0.316 µM, first compound 3.16 µM) 38.6% | viability, T/C (second compound 0.316 µM, first compound 10 µM) 26.9% | viability, T/C (second compound 1 µM, first compound 0.0316 µM) 48.3% | viability, T/C (second compound 1 µM, first compound 0.1 µM) 44.1% | viability, T/C (second compound 1 µM, first compound 0.316 µM) 52.8% | viability, T/C (second compound 1 µM, first compound 1 µM) 41.8% | viability, T/C (second compound 1 µM, first compound 3.16 µM) 36.2% | viability, T/C (second compound 1 µM, first compound 10 µM) 27.5% | viability, T/C (second compound 3.16 µM, first compound 0.0316 µM) 44.5% | viability, T/C (second compound 3.16 µM, first compound 0.1 µM) 41% | viability, T/C (second compound 3.16 µM, first compound 0.316 µM) 41.7% | viability, T/C (second compound 3.16 µM, first compound 1 µM) 41.3% | viability, T/C (second compound 3.16 µM, first compound 3.16 µM) 29.6% | viability, T/C (second compound 3.16 µM, first compound 10 µM) 20% | viability, T/C (second compound 10 µM, first compound 0.0316 µM) 42.8% | viability, T/C (second compound 10 µM, first compound 0.1 µM) 39.8% | viability, T/C (second compound 10 µM, first compound 0.316 µM) 44.7% | viability, T/C (second compound 10 µM, first compound 1 µM) 36.9% | viability, T/C (second compound 10 µM, first compound 3.16 µM) 32.5% | viability, T/C (second compound 10 µM, first compound 10 µM) 21.2%
< 31.6 nM: IC50 (second compound 1 µM) | IC50 (second compound 3.16 µM) | IC50 (second compound 10 µM)
331 nM: IC50 (second compound 0.316 µM)

— PubChem BioAssay AID2060499 (Molecular Pharmacology Branch, DTP, NCI, 2025)
